Measured values reported in US9428519B2, “Acylated derivative of homoharringtonine, preparation method therefor, and application thereof” (HANGZHOU BENSHENG PHARMACEUTICAL CO., LTD., priority 2011, dated 2016).
Converted amounts (≈) assume the structure as drawn.

Tests used:
[1] = test system: H9 (acute lymphoblastic leukemia, ALL); assay: MTT growth inhibition of leukemia cells, 72 h; type: cell-based, human; details: Homo sapiens, MTT
Description: (§1) Leukemia cell lines: leukemia cell lines: K562/adr (drug-resistant, chronic myeloid leukemia, CML), NB4 (acute promyelocytic leukemia, AML), Kasumi-1 (acute myeloid leukemia M2 type, AML-M2), Jurkat (acute lymphoblastic leukemia, ALL), all of which are donated by Cancer Research Institute of Zhejiang University, China; and H9 (acute lymphoblastic leukemia, ALL), which is purchased from China Center for Type Culture Collection (CCTCC).
(§2) Reagents: The standard sample of homoharringtonine (HHT) is purchased from Taihua Natural Plant Pharmaceutical Co., Ltd., Shaanxi, China, the homoharringtonine derivatives of the present invention.
(§3) Obtaining 6000 well-growing leukemia cells and inoculating them into wells of a 96-well cell culture plate. The culture medium is the 1640 cell culture medium containing 10% fetal bovine serum. After adding the homoharringtonine derivatives of different concentrations and mixing uniformly, placing the plate in a carbon dioxide cell incubator (5% CO2) at 37° C. and incubated for 72 hours. Then the viable cell concentration is determined by the MTT method. In this experiment, the cell viability in control group (not treated with any compound) is set as 100%. On such basis, the cell viability (%) after treatment and the 50% inhibiting concentration of the compound for the leukemia cell growth at 72 hours (IC50 value of 72 hours) are calculated.

[2] = test system: Jurkat (acute lymphoblastic leukemia, ALL); assay: MTT growth inhibition of leukemia cells, 72 h; type: cell-based, human; details: Homo sapiens, Jurkat
Description: as §1, §2, §3

[3] = test system: K562/adr (drug-resistant, chronic myeloid leukemia, CML); assay: MTT growth inhibition of leukemia cells, 72 h; type: cell-based, human; details: Homo sapiens, K562/Adr, MTT
Description: as §1, §2, §3

[4] = test system: Kasumi-1 (acute myeloid leukemia M2 type, AML-M2); assay: MTT growth inhibition of leukemia cells, 72 h; type: cell-based, human; details: Homo sapiens, Kasumi 1, MTT
Description: as §1, §2, §3

[5] = test system: NB4 (acute promyelocytic leukemia, AML); assay: MTT growth inhibition of leukemia cells, 72 h; type: cell-based, human; details: Homo sapiens, MTT
Description: as §1, §2, §3

[6] = test system: RPMI8226 (multiple myeloma); assay: MTT growth inhibition of multiple myeloma cells, 72 h; type: cell-based, human; details: Homo sapiens, RPMI-8226, MTT
Method: Multiple myeloma and lymphoma cell lines: RPMI8226 (multiple myeloma), purchased from Fuxiang Bio-tech Co. Ltd., Shanghai, China.
as §3

[7] = test system: A549 (human lung cancer); assay: MTT growth inhibition of human solid tumor cells, 72 h; type: cell-based; details: Homo sapiens, A549
Method: (§4) Human solid tumor cell lines: Hep-2 (laryngeal carcinoma), A549 (human lung cancer), CaES-17 (esophageal cancer cell), PC-3 (prostate cancer), CNE (nasopharyngeal carcinoma cell), and SK-OV-3 (ovarian cancer cell), all of which are purchased from China Center For Type Culture Collection; RKO (human colon adenocarcinoma cell), MGC 803 (human gastric cancer cell), MG63 (osteosarcoma) and U87 MG (malignant glioma cell), all of which are purchased from Fuxiang Bio-tech Co. Ltd., Shanghai, China; PANC-1 (pancreatic cancer), Huh7 (human liver cancer cell), Becap37 (human breast cancer cell), and Hela (human cervical cancer cell), all of which are donated by Cancer Research Institute of Zhejiang University, China.
(§5) Obtaining 4000 well-growing human solid tumor cells and inoculating them into wells of a 96-well cell culture plate. The culture medium is DMEM High Glucose cell culture medium containing 10% fetal bovine serum. The plate is placed in a carbon dioxide cell incubator (5% CO2) at 37° C. and incubated for 24 hours. After adding the homoharringtonine derivatives of different concentration and mixing uniformly, the plate is placed in a carbon dioxide cell incubator (5% CO2) at 37° C. and incubated for 72 hours. Then the viable cell concentration is determined by the MTT method and the cell viability (%) after drug treatment is calculated. In this experiment, the cell viability of control group (not treated with any compound) is set as 100%.

[8] = test system: Becap37 (human breast cancer cell); assay: as above; type: cell-based; details: Homo sapiens
Method: as §4, §5

[9] = test system: CNE (nasopharyngeal carcinoma cell); assay: as above; type: cell-based; details: for IC50 / IC90: Homo sapiens, MTT
Method: as §4, §5

[10] = test system: CaES-17 (esophageal cancer cell); assay: as above; type: cell-based; details: Homo sapiens, CaEs17
Method: as §4, §5

[11] = test system: Hela (human cervical cancer cell); assay: as above; type: cell-based; details: Homo sapiens, HeLa, MTT
Method: as §4, §5

[12] = test system: Hep-2 (laryngeal carcinoma); assay: as above; type: cell-based; details: Homo sapiens, HEp-2
Method: as §4, §5

[13] = test system: Huh7 (human liver cancer cell); assay: as above; type: cell-based; details: Homo sapiens, Huh-7
Method: as §4, §5

[14] = test system: MG63 (osteosarcoma); assay: as above; type: cell-based; details: Homo sapiens, MG-63, MTT
Method: as §4, §5

[15] = test system: MGC 803 (human gastric cancer cell); assay: as above; type: cell-based; details: Homo sapiens, MGC-803
Method: as §4, §5

[16] = test system: PANC-1 (pancreatic cancer); assay: as above; type: cell-based; details: Homo sapiens, PANC-1, MTT
Method: as §4, §5

[17] = test system: PC-3 (prostate cancer); assay: as above; type: cell-based; details: Homo sapiens, MTT
Method: as §4, §5

[18] = test system: RKO (human colon adenocarcinoma cell); assay: as above; type: cell-based; details: Homo sapiens, MTT
Method: as §4, §5

[19] = test system: SK-OV-3 (ovarian cancer cell); assay: as above; type: cell-based; details: Homo sapiens, SK-OV-3, MTT
Method: as §4, §5

[20] = test system: U87 MG (malignant glioma cell); assay: as above; type: cell-based; details: Homo sapiens, U-87 MG
Method: as §4, §5

Structure (SMILES): COC(=O)C[C@](O)(CCCC(C)(C)OC(=O)C1CCCC1)C(=O)O[C@@H]1C(OC)=C[C@]23CCCN2CCc2cc4c(cc2[C@H]13)OCO4 [BS-HH-077]
- IC50 [1]: 0.01 µg/mL (≈ 0.0156 µM)
- IC90 [1]: 0.03 µg/mL (≈ 0.0467 µM)
- IC50 [2]: 0.001 µg/mL (≈ 0.00156 µM)
- IC90 [2]: 11.4 µg/mL (≈ 17.7 µM)
- IC50 [3]: 0.01 µg/mL (≈ 0.0156 µM)
- IC90 [3]: 0.05 µg/mL (≈ 0.0779 µM)
- IC50 [4]: 0.004 µg/mL (≈ 0.00623 µM)
- IC90 [4]: 0.012 µg/mL (≈ 0.0187 µM)
- IC50 [5]: 0.009 µg/mL (≈ 0.014 µM)
- IC90 [5]: 0.022 µg/mL (≈ 0.0343 µM)
- IC50 [6]: 0.004 µg/mL (≈ 0.00623 µM)
- IC90 [6]: 0.024 µg/mL (≈ 0.0374 µM)
- IC50 [7]: 0.02 µg/mL (≈ 0.0312 µM)
- IC90 [7]: > 16 µg/mL
- IC50 [8]: 0.007 µg/mL (≈ 0.0109 µM)
- IC90 [8]: 11.1 µg/mL (≈ 17.3 µM)
- IC50 [9]: 0.012 µg/mL (≈ 0.0187 µM)
- IC90 [9]: > 16 µg/mL
- anti-CNE effect relative to homoharringtonine ([9]; vs HHT): more than 3 fold
- IC50 [10]: 0.031 µg/mL (≈ 0.0483 µM)
- IC90 [10]: 16 µg/mL (≈ 24.9 µM)
- IC50 [11]: 0.014 µg/mL (≈ 0.0218 µM)
- IC90 [11]: 16 µg/mL (≈ 24.9 µM)
- IC50 [12]: 0.007 µg/mL (≈ 0.0109 µM)
- IC90 [12]: > 16 µg/mL
- IC50 [13]: 0.016 µg/mL (≈ 0.0249 µM)
- IC90 [13]: 0.36 µg/mL (≈ 0.561 µM)
- IC50 [14]: 0.021 µg/mL (≈ 0.0327 µM)
- IC90 [14]: 5.14 µg/mL (≈ 8.01 µM)
- IC50 [15]: 0.021 µg/mL (≈ 0.0327 µM)
- IC90 [15]: 0.087 µg/mL (≈ 0.136 µM)
- IC50 [16]: 0.055 µg/mL (≈ 0.0857 µM)
- IC90 [16]: > 16 µg/mL
- IC50 [17]: 0.039 µg/mL (≈ 0.0608 µM)
- IC90 [17]: > 16 µg/mL
- IC50 [18]: 0.006 µg/mL (≈ 0.00935 µM)
- IC90 [18]: 0.02 µg/mL (≈ 0.0312 µM)
- IC50 [19]: 0.034 µg/mL (≈ 0.053 µM)
- IC90 [19]: > 16 µg/mL
- IC50 [20]: 0.035 µg/mL (≈ 0.0545 µM)
- IC90 [20]: 0.16 µg/mL (≈ 0.249 µM)

Structure (SMILES): COC(=O)C[C@@](CCCC(C)(C)OC(=O)c1cccs1)(OC(=O)c1cccs1)C(=O)O[C@@H]1C(OC)=C[C@]23CCCN2CCc2cc4c(cc2[C@H]13)OCO4 [BS-HH-0572]
- IC50 [1]: 0.21 µg/mL (≈ 0.274 µM)
- IC90 [1]: 0.48 µg/mL (≈ 0.627 µM)
- IC50 [2]: 0.11 µg/mL (≈ 0.144 µM)
- IC90 [2]: 7.5 µg/mL (≈ 9.79 µM)
- IC50 [3]: 0.32 µg/mL (≈ 0.418 µM)
- IC90 [3]: 16 µg/mL (≈ 20.9 µM)
- IC50 [4]: 0.065 µg/mL (≈ 0.0849 µM)
- IC90 [4]: 0.4 µg/mL (≈ 0.522 µM)
- IC50 [5]: 0.12 µg/mL (≈ 0.157 µM)
- IC90 [5]: 0.4 µg/mL (≈ 0.522 µM)
- IC50 [6]: 0.155 µg/mL (≈ 0.202 µM)
- IC90 [6]: 1.13 µg/mL (≈ 1.48 µM)
- IC50 [7]: 0.48 µg/mL (≈ 0.627 µM)
- IC90 [7]: > 16 µg/mL
- IC50 [8]: 0.2 µg/mL (≈ 0.261 µM)
- IC90 [8]: 9.75 µg/mL (≈ 12.7 µM)
- IC50 [9]: 0.35 µg/mL (≈ 0.457 µM)
- IC90 [9]: 14.3 µg/mL (≈ 18.6 µM)
- IC50 [10]: 0.74 µg/mL (≈ 0.966 µM)
- IC90 [10]: 16 µg/mL (≈ 20.9 µM)
- IC50 [11]: 0.45 µg/mL (≈ 0.588 µM)
- IC90 [11]: 11.5 µg/mL (≈ 15.1 µM)
- IC50 [12]: 0.23 µg/mL (≈ 0.3 µM)
- IC90 [12]: > 16 µg/mL
- IC50 [13]: 0.17 µg/mL (≈ 0.222 µM)
- IC90 [13]: 1.7 µg/mL (≈ 2.22 µM)
- IC50 [14]: 0.2 µg/mL (≈ 0.261 µM)
- IC90 [14]: 4.75 µg/mL (≈ 6.2 µM)
- IC50 [15]: 0.24 µg/mL (≈ 0.313 µM)
- IC90 [15]: 1.62 µg/mL (≈ 2.12 µM)
- IC50 [16]: 0.43 µg/mL (≈ 0.561 µM)
- IC90 [16]: 12.6 µg/mL (≈ 16.4 µM)
- IC50 [17]: 1.84 µg/mL (≈ 2.4 µM)
- IC90 [17]: > 16 µg/mL
- IC50 [18]: 0.12 µg/mL (≈ 0.157 µM)
- IC90 [18]: 0.56 µg/mL (≈ 0.731 µM)
- IC50 [19]: 0.98 µg/mL (≈ 1.28 µM)
- IC90 [19]: > 16 µg/mL
- IC50 [20]: 0.23 µg/mL (≈ 0.3 µM)
- IC90 [20]: 0.99 µg/mL (≈ 1.29 µM)
